Reference: patent US20210387983A1, “CRYSTALLINE ALK5 INHIBITORS AND USES THEREOF” (THERAVANCE BIOPHARMA R&D IP, LLC, priority 2020, published 2021)

Columns and labels:
[1] = tested on: TGF-β-stimulated SMAD3 phosphorylation in BEAS-2B cells; assay: Cellular ALK5 potency assay, inhibition of TGF-β stimulated pSMAD3 formation in BEAS-2B cells; assay type: cell-based; conditions: Homo sapiens, 1 hour compound incubation, TGF-β 10 ng/mL for 30 minutes, read-out: pIC50 value, inhibition of TGF-β-stimulated pSMAD3 formation (converted)
Protocol: The potency of the compound of Formula I for inhibition of TGF-β-stimulated SMAD3 phosphorylation was measured in BEAS-2B cells, a human lung epithelial cell line. TGF-β signals through activin receptor-like kinase 5 (ALK5) immediately prior to SMAD3 phosphorylation.
BEAS-2B cells were grown using 50% DMEM (Life Technologies) and 50% F-12 (Life Technologies) media, supplemented with 10% Fetal Bovine Serum (ATCC), 25 mM HEPES (Life Technologies), and 1× Pen-Strep (Life Technologies). Cells were cultured in a humidified incubator set at 37° C., 5% CO2, and trypsonized using 0.25% Trypsin with 0.5% polyvinylpyrrolidone (PVP).
For the assay, BEAS-2B cells were seeded at 7,500 cells/well (25 μL/well) in a 384-well plate and cultured overnight. Before dosing, growth media was aspirated and the wells were rinsed with HBSS Buffer (HBSS with Calcium and Magnesium, Life Technologies) supplemented with 25 mM HEPES (Life Technologies) and 1% Bovine Serum Albumin (Roche). […] AlphaLISA Acceptor and Detector beads (PerkinElmer) were added 2 hours apart, then incubated overnight to be read the next day. The potency of the compound was determined through analysis of dose-dependent quantified changes in pSMAD3 signal from baseline (non-compound treated TGF-β stimulated cells). Data are expressed as pIC50 (negative decadic logarithm IC50) values.

[2] = tested on: DSS-induced intestinal fibrosis; assay: Prophylactic study in murine DSS-induced intestinal fibrosis model; assay type: in vivo, C57BL/6J mice; conditions: oral gavage starting on day one of DSS administration; sacrifice 9 weeks
Protocol: The compound of Formula I is expected to slow, halt or reverse the progression of intestinal fibrosis in a murine colitis model. Six to 8-week old male C57BL/6J mice are tagged and weighed. The drinking water of the animals is treated with 2.5% dextran sulfate sodium (DSS) for 7 days to induce acute colitis, followed by 2 days of normal drinking water. Three, 3-week cycles of 2.5% DSS treatment (1 week of 2.5% DSS in water; 2 weeks of normal water) are then completed to induce intestinal fibrosis. Starting on day one of DSS administration, mice are treated with either vehicle control or the compound of Formula I at an appropriate amount and frequency via oral gavage (e.g., once daily). The animals are sacrificed 9 weeks after the first DSS administration, then distal, mid and proximal sections of the colon harvested for histologic analysis, RNA extraction and cytokine measurement.

SMAD3 phosphorylation = assay: Cardiac PK/PD: systemic target engagement, pSMAD3/tSMAD3 in heart by Meso-Scale Discovery; assay type: in vivo, C57bl/6n mice; conditions: mice, oral aspiration 2 or 4 hours prior to harvest; TGF-β1 i.v. challenge; heart samples
Protocol: C57bl/6n mice were acclimated for at least 3 days before use. On the day of the experiment, animals were grouped into sample sizes of 5-10. Test compounds were pre-treated via oral aspiration (OA; animals are forced to aspirate solution into the lungs by covering their nose). All oral aspirations were performed using a 50 μL dosing volume and accompanied by a vehicle control group (3% glycerol in PBS, pH=4). Following compound OA treatment, the animals were returned to their home cages and monitored. Compound pre-treatment occurred either 2 or 4 hours prior to harvest. One hour prior to harvest, animals were challenged via tail-vein intravenous injection with PBS vehicle or recombinant human TGF-β1 protein (1 μg per animal dissolved in 1 part 4 mM HCl and 2 parts 3% glycerol in PBS). Five minutes prior to harvest, animals were deeply anesthetized under isoflurane and euthanized via cervical dislocation. Plasma, left lung lobes and whole hearts were collected during harvest.
Blood plasma was harvested as described above in the Lung PK/PD experiment. Whole hearts were processed in the same manners as left lung lobes in the Lung PK/PD experiment. Left lung lobes were homogenized in 500 μL of water and submitted for BA Analysis.
Heart samples were processed using MSD in the same manner as the left lung lobes above. […] Plasma, lung and heart drug concentrations were quantified.

[3] = tested on: syngeneic cancer models (4T1 cells, CT26 cells); assay: Efficacy study in syngeneic cancer model (4T1 or CT26 cells); assay type: in vivo, BALB/c mice
Source text: The compound of Formula I is expected to suppress tumor growth in syngeneic cancer models when administered alone or in combination with an immunotherapeutic agent. Six- to 8-week old BALB/c mice are used for in vivo efficacy studies in accordance with IACUC guidelines. Commercially available 4T1 cells (0.5-2.0×10^4 cells/mouse) are implanted subcutaneously into the right flanks of BALB/c mice. When the tumor reaches a palpable size of approximately 8-10 mm in diameter, the primary tumors are surgically removed, and the mice are randomly assigned to vehicle control or compound treatment groups. Alternatively, CT26 cells (0.5-2.0×10^4 cells/mouse) are injected intravenously into BALB/c mice to generate the cancer model. […]
Body weight is measured twice weekly. Following 2- to 4-weeks of treatment, the lung and liver of each animal is harvested, and the number of metastatic cells in each tissue sample determined using a clonogenic metastasis assay. […]

**Q.** Which results are given for `C[C@@H]1CN(CCNc2cnc3ccc(-c4nc[nH]c4-c4cc(Cl)ccc4F)nc3c2)C[C@H](C)N1` [compound of Formula I, 6-(5-(5-chloro-2-fluorophenyl)-1H-imidazol-4-yl)-N-(2-((3S,5R)-3,5-dimethylpiperazin-1-yl)ethyl)-1,5-naphthyridin-3-amine]?
**A.** IC50 [1]: 25.1 to 158 nM; intestinal fibrosis [2]: slow or prevent intestinal fibrosis; systemic target engagement, as measured by SMAD3 phosphorylation inhibition (SMAD3 phosphorylation): minimal target engagement systemically; lung tumor burden in combination with an immunotherapeutic agent ([3]; combination with immunotherapeutic agent (e.g., pembrolizumab or durvalumab), relative to either single agent alone): increased reduction in lung tumor burden; lung tumor burden ([3]; compound alone, oral aspiration or intranasally, 2- to 4-weeks of treatment): reduction in lung tumor burden
